{"source": "patent US10010525B2", "about": "“Methods of inducing anesthesia” (The Regents of the University of California, priority 2012, dated 2018)", "key": {"[1]": {"target": "T1, NMDA (NR1/NR2A) receptors (Rattus norvegicus, UniProt P35439+Q00959)", "T1 construct": "expressed in transfected cells; host or cells: Xenopus laevis oocytes (RNA injection, 1:1)", "T1 sequence (Q00959 23-1464, other chains not shown)": "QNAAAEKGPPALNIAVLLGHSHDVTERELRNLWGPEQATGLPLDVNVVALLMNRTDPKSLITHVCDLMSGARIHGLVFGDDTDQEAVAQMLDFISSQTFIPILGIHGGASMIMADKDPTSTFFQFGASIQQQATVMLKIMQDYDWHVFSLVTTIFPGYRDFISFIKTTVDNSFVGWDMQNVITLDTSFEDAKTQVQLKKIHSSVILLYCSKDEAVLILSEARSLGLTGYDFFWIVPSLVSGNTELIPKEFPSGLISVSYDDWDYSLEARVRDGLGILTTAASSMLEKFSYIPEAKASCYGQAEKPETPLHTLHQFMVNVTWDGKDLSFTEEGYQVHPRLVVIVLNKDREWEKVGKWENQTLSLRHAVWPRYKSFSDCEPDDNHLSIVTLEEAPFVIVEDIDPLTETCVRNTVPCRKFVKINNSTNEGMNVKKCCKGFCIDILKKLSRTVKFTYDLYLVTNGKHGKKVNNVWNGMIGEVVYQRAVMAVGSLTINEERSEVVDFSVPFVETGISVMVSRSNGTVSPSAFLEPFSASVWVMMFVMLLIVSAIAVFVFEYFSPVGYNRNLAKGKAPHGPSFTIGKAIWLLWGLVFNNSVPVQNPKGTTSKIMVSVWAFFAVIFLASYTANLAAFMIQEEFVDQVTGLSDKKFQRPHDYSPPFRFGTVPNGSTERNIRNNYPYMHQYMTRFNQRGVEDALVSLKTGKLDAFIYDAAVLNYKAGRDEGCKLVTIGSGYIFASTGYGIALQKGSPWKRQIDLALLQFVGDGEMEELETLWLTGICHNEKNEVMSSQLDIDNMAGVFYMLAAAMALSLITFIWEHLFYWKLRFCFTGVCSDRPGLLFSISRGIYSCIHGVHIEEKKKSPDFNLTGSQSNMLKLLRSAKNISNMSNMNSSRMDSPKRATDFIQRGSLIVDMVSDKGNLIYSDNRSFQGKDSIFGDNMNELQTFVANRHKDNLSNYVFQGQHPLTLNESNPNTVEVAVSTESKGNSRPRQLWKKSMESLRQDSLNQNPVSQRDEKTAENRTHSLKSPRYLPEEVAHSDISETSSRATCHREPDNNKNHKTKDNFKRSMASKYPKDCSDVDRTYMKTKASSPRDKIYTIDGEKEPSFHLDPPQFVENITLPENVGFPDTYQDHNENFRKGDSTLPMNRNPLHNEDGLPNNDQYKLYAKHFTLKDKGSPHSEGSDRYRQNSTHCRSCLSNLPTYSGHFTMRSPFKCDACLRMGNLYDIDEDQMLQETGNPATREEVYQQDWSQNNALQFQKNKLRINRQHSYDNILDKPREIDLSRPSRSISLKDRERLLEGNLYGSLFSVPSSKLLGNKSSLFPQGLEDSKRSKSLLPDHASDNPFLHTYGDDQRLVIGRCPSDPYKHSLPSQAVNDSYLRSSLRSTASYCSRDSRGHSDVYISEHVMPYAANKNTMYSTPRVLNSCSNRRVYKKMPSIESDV", "assay": "NMDA receptor two-electrode voltage clamp in oocytes at saturated drug concentration", "assay_type": "cell-based", "conditions": "saturating aqueous concentration", "text": "(§1) GABAA (α1β2γ2s) or NMDA (NR1/NR2A) receptors were expressed in oocytes and studied using standard two-electrode voltage clamp techniques. Hydrocarbons from 14 different organic functional groups were studied at saturated concentrations, and compounds within each group differed only by the carbon number at the ω-position or within a saturated ring. An effect on GABAA or NMDA receptors was defined as a 10% or greater reversible current change from baseline that was statistically different from zero.\n(§2) An ovary from tricaine-anesthetized Xenopus laevis frogs was surgically removed using a protocol approved by the Institutional Animal Care and Use Committee at the University of California, Davis. Following manual disruption of the ovarian lobule septae, the ovary was incubated in 0.2% Type I collagenase (Worthington Biochemical, Lakewood, N.J.) to defolliculate oocytes which were washed and stored in fresh and filtered modified Barth's solution composed of 88 mM NaCl, 1 mM KCl, 2.4 mM NaHCO3, 20 mM HEPES, 0.82 mM MgSO4, 0.33 mM Ca(NO3)2, 0.41 mM CaCl2, 5 mM sodium pyruvate, gentamycin, penicillin, streptomycin, and corrected to pH=7.4. All salts and antibiotics were A.C.S. grade (Fisher Scientific, Pittsburgh, Pa.).\n(§3) Clones used were provided as a gift from Dr. R. A. Harris (University of Texas, Austin) and were sequenced and compared to references in the National Center for Biotechnology Information database to confirm the identity of each gene. GABAA receptors were expressed using clones for the human GABAA α1 and the rat GABAA β2 and γ2s subunits in pCIS-II vectors. […] In separate oocytes, glutamate receptors were expressed using rat NMDA NR1 clones in a pCDNA3 vector and rat NMDA NR2A clones in a Bluescript vector. RNA encoding each subunit was prepared using a commercial transcription kit (T7 mMessage mMachine, Ambion, Austin, Tex.) was mixed in a 1:1 ratio, and 1-10 ng of total RNA was injected into oocytes and studied 1-2 days later.\nBriefly, baseline perfusion solutions were the same as for GABAA with the substitution of equimolar BaCl2 for calcium salts and the addition of 0.1 mM EGTA; this constituted barium frog Ringer's solution (BaFR). Agonist solutions for NMDA studies also contained 0.1 mM glutamate (E) and 0.01 mM glycine (G) to constitute a BaFREG solution.\nThe syringe pump and perfusion chamber apparatus as well as the clamp holding potential and baseline-agonist exposure protocols were identical to that described for the GABAA studies. The same test compounds, concentrations, and preparative methods were used in NMDA voltage clamp studies as in the GABAA voltage clamp studies (Table 2).\n(§4) Modulating drug responses were calculated as the percent of the control (baseline) peak as follows: 100·ID/IB, where ID and IB were the peak currents measured during agonist+drug and agonist baseline perfusions, respectively. When present, direct receptor activation by a drug was similarly calculated as a percent of the agonist response. […] A lack of receptor response (cut-off) was defined as a<10% change from baseline current that was statistically indistinguishable from zero using a two-tailed Student t-test."}, "[2]": {"target": "T2, GABAA (α1β2γ2s) receptors (UniProt P14867+P18508+P63138)", "T2 construct": "expressed in transfected cells; host or cells: Xenopus laevis oocytes (intranuclear plasmid injection, α1:β2:γ2 = 1:1:10)", "T2 sequence (P14867 28-456)": "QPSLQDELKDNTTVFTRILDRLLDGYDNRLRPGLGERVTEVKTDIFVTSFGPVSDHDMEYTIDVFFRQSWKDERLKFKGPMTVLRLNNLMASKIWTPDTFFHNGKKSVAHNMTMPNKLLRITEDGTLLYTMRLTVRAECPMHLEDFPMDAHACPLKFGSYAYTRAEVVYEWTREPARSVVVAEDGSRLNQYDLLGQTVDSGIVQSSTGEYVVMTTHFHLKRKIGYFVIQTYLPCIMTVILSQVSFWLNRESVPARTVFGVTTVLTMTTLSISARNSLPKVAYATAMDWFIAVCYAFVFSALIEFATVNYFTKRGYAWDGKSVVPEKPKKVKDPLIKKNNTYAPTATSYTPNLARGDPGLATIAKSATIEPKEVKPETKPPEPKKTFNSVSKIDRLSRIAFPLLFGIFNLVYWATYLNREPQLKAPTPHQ", "T2 sequence (P63138 25-474 limits assumed)": "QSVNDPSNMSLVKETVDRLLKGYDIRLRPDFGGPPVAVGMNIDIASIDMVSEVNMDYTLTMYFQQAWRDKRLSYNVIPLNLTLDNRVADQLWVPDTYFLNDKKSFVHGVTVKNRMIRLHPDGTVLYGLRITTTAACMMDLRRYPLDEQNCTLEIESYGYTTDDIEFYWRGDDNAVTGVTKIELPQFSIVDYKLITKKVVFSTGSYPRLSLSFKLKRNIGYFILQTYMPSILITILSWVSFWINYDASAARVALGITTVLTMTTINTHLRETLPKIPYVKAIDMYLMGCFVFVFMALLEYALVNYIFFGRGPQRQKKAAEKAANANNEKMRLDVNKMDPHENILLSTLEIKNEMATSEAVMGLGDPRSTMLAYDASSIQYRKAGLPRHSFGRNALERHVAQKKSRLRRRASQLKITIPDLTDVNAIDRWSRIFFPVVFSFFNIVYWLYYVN", "T2 sequence (P18508 39-466)": "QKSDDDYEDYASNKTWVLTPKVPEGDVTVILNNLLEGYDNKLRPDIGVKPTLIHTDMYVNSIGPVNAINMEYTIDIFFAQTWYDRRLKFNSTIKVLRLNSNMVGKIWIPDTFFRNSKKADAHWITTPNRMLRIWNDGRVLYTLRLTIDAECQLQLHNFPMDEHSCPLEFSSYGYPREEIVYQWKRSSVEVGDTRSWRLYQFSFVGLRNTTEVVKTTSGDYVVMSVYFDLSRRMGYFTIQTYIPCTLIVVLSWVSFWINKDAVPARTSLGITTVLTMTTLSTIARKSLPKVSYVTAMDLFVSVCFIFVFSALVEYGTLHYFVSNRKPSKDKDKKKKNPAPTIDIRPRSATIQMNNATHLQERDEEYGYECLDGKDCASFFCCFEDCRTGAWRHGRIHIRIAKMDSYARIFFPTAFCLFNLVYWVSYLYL", "assay": "GABAA receptor two-electrode voltage clamp in oocytes at saturated drug concentration", "assay_type": "cell-based, human α1, rat β2 and γ2s", "conditions": "saturating aqueous concentration", "text": "as §1, §2, §3\nOocytes were studied in a 250 μL linear-flow perfusion chamber with solutions administered by syringe pump at 1.5 ml/min with gastight glass syringes and Teflon tubing. Oocyte GABAA currents were studied using standard two-electrode voltage clamping techniques at a holding potential of […] using a 250 μL channel linear-flow perfusion chamber with solutions administered by syringe pump at 1.5 mL/min.\nAfter FR perfusion for 5 min, oocytes were exposed to 30 sec FR-GABA followed by another 5 min FR washout; this was repeated until stable GABAA-elicited peaks were obtained. Next, FR containing a saturated solution of the study drug (Table 2)—or for gaseous study compounds a vapor pressure equal to 90% of barometric pressure with balance oxygen—was used to perfuse the oocyte chamber for 2 min followed by perfusion with a FR-GABA solution containing the identical drug concentration for 30 sec.\nas §4"}, "[3]": {"assay": "Loss of righting reflex in mice (inhaled agent)", "assay_type": "in vivo", "procedure": "(§5) HFCP caused loss of righting reflex (a surrogate measure of unconsciousness) in 4 healthy ND4 mice at 1.0±0.2 (mean±SD) percent of 1 atmosphere. […] After 2 hours of anesthesia, mice were awake after about 1 minute of discontinuing HFCP administration. […] Despite a lack of NMDA receptor effects, 1,1,2,2,3,3,4-heptafluorocyclopentane is able to produce the desired pharmacologic endpoints of unconsciousness and immobility that appears similar to desirable effects produced by conventional agents."}, "[4]": {"assay": "Histopathology of heart, lung, kidney and liver tissues after anesthesia", "assay_type": "in vivo, ND4 mice", "conditions": "collected 2 days later", "procedure": "as §5"}, "glycine receptors": {"system": "glycine receptors", "assay": "Glycine receptor modulation in vitro", "assay_type": "cell-based"}, "[5]": {"system": "inhibitory potassium channels", "assay": "Inhibitory potassium channel modulation in vitro", "assay_type": "cell-based", "conditions": "some inhibitory potassium channels"}, "Stability in soda lime": {"assay": "Stability in soda lime", "assay_type": "physicochemical", "text": "Divalent bases (and sometimes monovalent bases) are used for CO2 absorption in anesthetic circuits; clinically-useful agents must therefore be stable in the presence of strong bases. […] Anesthetics should also be resistant to hydrolysis and redox reactions in vivo. Compounds with ester linkages can be thermally unstable or hydrolysed by plasma and tissue cholinesterases; and those compounds resistant to hydrolysis may likely cause undesirable inhibition of these enzymes (which are essential for metabolism of other drugs). Therefore, compounds with ester linkages are not preferred. Anesthetics with non-aromatic unsaturated carbon linkages have been used historically (fluroxene, isopropenyl vinyl ether, trichloroethylene, vinethylene, ethylene) and shown to undergo extensive metabolism that for some agents was associated with toxicity. Agents containing double or triple carbon bonds are not preferred."}, "[6]": {"conditions": "aqueous phase; Human; cited from earlier work"}, "[7]": {"system": "3-transmembrane (TM3) and 4-transmembrane (TM4) receptors", "conditions": "grouped by calculated molar solubility in unbuffered water at 25° C.; cited from earlier work"}, "[8]": {"conditions": "read-out: Aqueous EC50; aqueous phase; Rat; cited from earlier work"}, "NMDA receptor": {"target": "NMDA receptor", "conditions": "read-out: IC50, inhibition of NMDA receptor currents; cited from earlier work"}, "oocyte": {"system": "oocyte", "assay": "Cytotoxicity during oocyte electrophysiology studies", "assay_type": "cell-based, Xenopus laevis", "text": "These compounds are not preferred. Other structures previously known to be highly toxic to animals or humans (such as silanes and boranes) are not preferred."}, "GABAA receptor": {"system": "GABAA receptor", "conditions": "365 μM ketamine; cited from earlier work"}, "[9]": {"assay": "Loss of righting reflex in Sprague-Dawley rats (inhaled agent)", "assay_type": "in vivo", "procedure": "1,1,2,2,3,3,4,5-octafluorocyclopentane (CAS#828-35-3) caused a loss of righting reflex in 4 healthy Sprague-Dawley rats at a concentration of 3.3±0.4 (mean±SD) percent of 1 atmosphere. […] After discontinuing the agent, rats were awake and ambulatory in less than 1 minute. […] Despite a lack of NMDA receptor effects, 1,1,2,2,3,3,4,5-octafluorocyclopentane is able to produce the desired pharmacologic endpoints of unconsciousness and immobility that appears similar to desirable effects produced by conventional agents."}}, "note": "Where two headings read alike, the source gives them in different places.", "data": [{"smiles": "FC1CC(F)(F)C(F)(F)C1(F)F", "note": "(stereo not drawn) [HFCP, 1,1,2,2,3,3,4-heptafluorocyclopentane]", "values": [{"measurement": "NMDA receptor modulation (in words)", "setting": "[1]", "value": "no effect"}, {"measurement": "GABAA receptor modulation (in words)", "setting": "[2]", "value": "potentiates"}, {"measurement": "concentration causing loss of righting reflex", "setting": "[3]; 4 healthy ND4 mice, mean±SD, inhaled", "value": "1.0±0.2% of 1 atmosphere"}, {"measurement": "excitement or coughing during anesthetic induction", "setting": "[3]; mice", "value": "no excitement or coughing"}, {"measurement": "time to awake after discontinuing administration", "setting": "[3]; mice, after 2 hours of anesthesia", "value": "about 1 minute"}, {"measurement": "histopathology of heart, lung, kidney and liver tissues", "setting": "[4]", "value": "no evidence of inflammation or toxicity"}, {"measurement": "glycine receptor modulation (in words)", "setting": "glycine receptors", "value": "potentiates"}, {"measurement": "inhibitory potassium channel modulation (in words)", "setting": "[5]", "value": "potentiates"}, {"measurement": "stability in soda lime", "setting": "Stability in soda lime", "value": "stable in soda lime"}]}, {"smiles": "CCCC(C)C1(CC)C(=O)NC(=S)NC1=O", "note": "(stereo not drawn) [Thiopental]", "values": [{"measurement": "EC50", "setting": "[6]", "value": 25, "unit": "µM"}]}, {"smiles": "CC(C)c1cccc(C(C)C)c1O", "note": "[Propofol]", "values": [{"measurement": "ion channel modulation, TM3 versus TM4 receptors (FIG. 2)", "setting": "[7]", "value": "modulate both 3-transmembrane (TM3) and TM4 receptors"}, {"measurement": "EC50", "setting": "[8]", "value": 2, "unit": "µM"}, {"measurement": "IC50", "setting": "NMDA receptor", "value": 160, "unit": "µM"}]}, {"smiles": "C1CCNC1", "note": "[pyrrolidine]", "values": [{"measurement": "cytotoxicity during oocyte electrophysiology studies", "setting": "oocyte", "value": "cytotoxicity"}]}, {"smiles": "CNC1(c2ccccc2Cl)CCCCC1=O", "note": "(stereo not drawn) [Ketamine]", "values": [{"measurement": "EC50", "setting": "[6]", "value": 2, "unit": "µM"}, {"measurement": "increase of GABAA receptor currents", "setting": "GABAA receptor", "value": 56, "unit": "%"}, {"measurement": "ion channel modulation, TM3 versus TM4 receptors (FIG. 2)", "setting": "[7]", "value": "modulate both 3-transmembrane (TM3) and TM4 receptors"}]}, {"smiles": "FC1C(F)C(F)(F)C(F)(F)C1(F)F", "note": "(stereo not drawn) [1,1,2,2,3,3,4,5-octafluorocyclopentane]", "values": [{"measurement": "NMDA receptor modulation (in words)", "setting": "[1]", "value": "no effect"}, {"measurement": "GABAA receptor modulation (in words)", "setting": "[2]", "value": "potentiates"}, {"measurement": "concentration causing loss of righting reflex", "setting": "[9]; 4 healthy Sprague-Dawley rats, mean±SD, inhaled", "value": "3.3±0.4% of 1 atmosphere"}, {"measurement": "excitement or coughing during anesthetic induction", "setting": "[9]; rats", "value": "without excitement or coughing"}, {"measurement": "time to awake and ambulatory after discontinuing the agent", "setting": "[9]; rats", "value": "less than 1 minute"}, {"measurement": "glycine receptor modulation (in words)", "setting": "glycine receptors", "value": "potentiates"}, {"measurement": "inhibitory potassium channel modulation (in words)", "setting": "[5]", "value": "potentiates"}]}]}
